According to patent publication US9023987B2, “Cell-permeable peptide” (Seoul National University R&DB Foundation, priority 2010, dated 2015):
Ends that are not written are not given here.

Columns and labels:
[1] = tested on: human mesenchymal stem cells (hMSC); assay: Cell permeability by fluorescence imaging (confocal scanning microscope); assay type: cell-based; conditions: FITC/fluorescence-labeled, FIG. 3A, FIG. 7
Procedure: The domains synthesized in Example 1 and Comparative Examples 1 and 2 were labeled with a fluorescent material in order to measure cell permeability. 10 equivalents of fluorescein isothiocyanate (FITC) was bound to N-terminals of the synthesized domains by using triethylamine (1 ml per 1 g of resin). The synthesis of the peptide was confirmed by measuring the molecular weight thereof through MALDI-TOF.
In order to measure the cell permeability of the cell permeable peptide-bone differentiation inducing sequence conjugate, after sterile slide glass was input in a 6-well plate and 2×10^4 human mesenchymal stem cells (hMSC) were plated in each well, the cells were cultured in a general medium for 20 hours (overnight incubation). Then the cells was cultured in an hMSC basal medium (MSCBM, LONZA, USA) containing 0.5% fetal bovine serum (FBS, GIBCO, USA) for 20 hours (overnight starvation). […] fluorescence labeled cell permeable peptide-bone differentiation inducing sequence conjugate and […] fluorescence labeled bone differentiation inducing sequence that were obtained by binding FITC (SIGMA, USA) N-terminals of the cell permeable peptide-bone differentiation inducing sequence conjugate synthesized by the method in Example 1 and the domain in Comparative Example 2 to synthesize the fluorescence label conjugate and fluorescence label domain, followed by isolation and purification, were injected into each well and washed with phosphate buffer solution (PBS) two times after 20 minutes and 80 minutes of injection. The resultants was observed using a confocal scanning microscope (IX 70, Olympus Co., Tokyo, Japan).

[2] = target: T1, human-derived Smurf1 protein (Homo sapiens, UniProt Q9HCE7); assay: Affinity to Smurf1 by surface plasmon resonance (BIACORE T100); assay type: binding; conditions: 10 mM analyte over Smurf1 coupled to CM5 chip; FIG. 2A
T1 construct: purchased Origene Technologies (Rockville, Md., USA)
T1 sequence (Q9HCE7 whole entry): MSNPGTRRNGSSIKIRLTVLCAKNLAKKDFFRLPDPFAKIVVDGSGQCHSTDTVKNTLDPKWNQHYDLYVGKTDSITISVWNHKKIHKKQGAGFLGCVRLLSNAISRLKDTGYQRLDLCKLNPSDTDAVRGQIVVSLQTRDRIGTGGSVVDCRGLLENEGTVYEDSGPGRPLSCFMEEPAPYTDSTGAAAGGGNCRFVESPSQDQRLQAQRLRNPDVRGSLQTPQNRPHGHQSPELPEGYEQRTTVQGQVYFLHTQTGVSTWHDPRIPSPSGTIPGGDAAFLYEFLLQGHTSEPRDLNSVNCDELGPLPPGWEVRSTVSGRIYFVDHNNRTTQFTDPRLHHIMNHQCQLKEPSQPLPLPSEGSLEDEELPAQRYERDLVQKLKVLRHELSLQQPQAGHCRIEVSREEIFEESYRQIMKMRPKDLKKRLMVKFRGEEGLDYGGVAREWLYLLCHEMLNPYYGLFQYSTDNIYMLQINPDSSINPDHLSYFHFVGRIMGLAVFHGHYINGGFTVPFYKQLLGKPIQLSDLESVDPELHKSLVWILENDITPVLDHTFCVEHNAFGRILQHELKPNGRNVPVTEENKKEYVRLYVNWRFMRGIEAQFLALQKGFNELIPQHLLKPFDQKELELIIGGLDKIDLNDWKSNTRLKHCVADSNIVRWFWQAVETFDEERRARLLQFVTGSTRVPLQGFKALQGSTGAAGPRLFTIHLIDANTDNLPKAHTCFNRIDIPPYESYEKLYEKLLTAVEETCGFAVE
Procedure: In order to confirm the affinity between cell permeable peptide-bone differentiation inducing sequence conjugate and Smurf1 by a chemical method, a human-derived Smurf1 protein acting as a ligand in the present experiment was purchased from Origene Technologies (Rockville, Md., USA). The protein ([…]) was coupled to a gold coated surface of a CM5 chip (BIACORE AB, Sweden) on which amino groups are bounded using an EDC/NHS kit (BIACORE AB, Sweden). (Instead of this experimental method, ‘Immobilization’ integrated into the BIACORE® T100 (BIACORE AB, Sweden) software used by the present inventors may be used). In this case, in order to find a suitable pH condition at which the protein may bind to the amino group in the CM5 chip, a method called ‘pH scouting’ was performed, thereby finding a pH condition. As a method of ‘pH scouting’, a method integrated in the BIACORE® T100 (BIACORE AB, Sweden) software used by the present inventors may be used. […]

[3] = tested on: human mesenchymal stem cells (hMSC); assay: Cytotoxicity by MTT assay; assay type: cell-based; parameters: dose or concentration left out as unconfirmed; conditions: 24, 48, and 72 hours, FIG. 5
Procedure: In order to confirm whether or not cell proliferation is affected by potential toxicity when the cell permeable peptide-bone differentiation inducing sequence conjugate and control domains are cultured with hMSC, a 3-[4,5-dimethylthiazo-2-yl]-2,5-diphenyl tetrazolium bromide thiazolyl blue (MTT) assay method was used.
The MTT assay method is a method for measuring cytotoxicity by measuring absorbance of formazan produced as mitochondrial dehydrogenases in alive and metabolically active cells reduces MTT to indicate the absorbance as a percentage based on the control group. In this case, the measured absorbance reflects a concentration of the alive and metabolically active cells. 2,3,5-triphenyl tetrazolium chloride (TTC) is reduced to formazan in live cells. The formazan is insoluble purple color, and a respiration rate may be measured by a degree of color. The absorbance of formazan is maximal at 540 nm, and the absorbance measured at this wavelength reflects the concentration of the alive and metabolically active cells. Since a linear relationship between the absorbance and the concentration of the cells is not established when a concentration of cells in well to be measured is excessively high or low, a process of determining an optimal concentration of the cells was performed. […]

[4] = tested on: human mesenchymal stem cells (hMSC); assay: Cytotoxicity / cell proliferation by quantitative BrdU assay; assay type: cell-based; parameters: dose or concentration left out as unconfirmed; conditions: 24, 48, and 72 hours, FIG. 6
Procedure: In order to confirm whether or not cell proliferation is affected by potential toxicity when the cell permeable peptide-bone differentiation inducing sequence conjugate and control domains are cultured with hMSC, a degree of cell proliferation was analysis by ELISA using BrdU. Since BrdU was introduced in chromosome instead of deoxy thymidine triphosphate (dTTP) at the time of DNA replication during a proliferation process of hMSC, a degree of introduction of BrdU may reflect a degree of proliferation of hMSC.
First, After 1×10^3 human Mesenchymal Stem cells (hMSC) were plated into each well of 96-well plate, the degree of introduction of BrdU, that is, the degree of proliferation of hMSC was measured using a cell proliferation ELISA kit (BrdU (colorimetry); Boehringermanheim, Germany). Simply describing this method, the cells were treated with the cell permeable peptide-bone differentiation inducing sequence conjugate synthesized by the method in Example 1 and the domains of Example 2 at a concentration of […] and cultured in medium for forming hard tissue for 24, 48, and 72 hours. […] of BrdU (5-bromo-2′-deoxyuridine) was added to each of the groups before 24 hours of each culture time and further cultured for 24 hours. […] The reaction was terminated by 1N H2SO4, and then absorbance was measured using the ELISA reader (Bio-Tek, USA) at 450 nm.

Substance | intracellular fluorescence after 20 minutes (confocal) [1] | intracellular fluorescence after 80 minutes (confocal) [1] | affinity to Smurf1 [2] [RU] | cytotoxicity (MTT, cell proliferation ability compared with PBS) [3] | effect on cell proliferation (BrdU, DNA synthesis ability compared with PBS) [4]
SSRKKNPNCRRH (H4S) [Comparative Example 1] | fluorescent materials uniformly present in cytoplasm were observed | fluorescent materials densely present up to in nucleus were confirmed | 100 |  | 
GAPPPADSAP-NH2 [Comparative Example 2, GAPPPADSAP, reference compound] |  |  |  | did not exhibit cytotoxicity | did not affect the cell proliferation
YGRKKRRQRRR [TAT, reference compound] | fluorescent materials uniformly present in cytoplasm were observed | fluorescent materials densely present up to in nucleus were confirmed |  |  | 
